Results reported in patent US20250381110A1, “SKIN CARE COMPOSITION AND METHOD OF USING THE SAME” (THE PROCTER & GAMBLE COMPANY, priority 2024, published 2025).
Structures can show the parent of a compound that is named as a salt.

Tested on: p62-dependent mitophagy
Assay: Luciferase-p62 assay (Fluc-p62 clearance) in mouse embryonic fibroblasts
Assay type: cell-based
Details: for Mean Luminescence: Luciferase-p62 assay, mouse embryonic fibroblasts (MEFs), compounds at 10 μM; for % Activity over baseline: percentage of Luciferase-p62 clearance relative to baseline (mean luminescence in the absence of doxycycline induction); for % Activity over baseline / % Activity relative to Rapamycin: MEFs, 10 μM; for % Activity relative to Rapamycin: percentage of activity relative to rapamycin tested in the same experiment at the same concentration
How it was run: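 MEFs with doxycycline-inducible Fluc-p62; after induction, doxycycline removed and cells treated 48 h with compounds at 10 μM. Fluc-p62 clearance, taken as mitophagy, read by ONE-Glo+Tox luciferase with viability. Vehicle (DMSO) as negative control; activity also expressed relative to rapamycin.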

| Molecule | Mean Luminescence | % Activity over baseline [%] | % Activity relative to Rapamycin [%] |
| --- | --- | --- | --- |
| CCC[C@@H]1C[C@@H](C(=O)N[C@@H]([C@H]2O[C@H](SC)[C@H](OP(=O)(O)O)[C@@H](O)[C@H]2O)[C@H](C)Cl)N(C)C1 [Clindamycin Phosphate] | 526.49 | 67.46 | 121.55 |
| CSCCC(NC(C)=O)C(=O)O (racemic) [N-Acetyl-DL-methionine] | 973.29 | 39.85 | 71.80 |
| Cc1ccc(C(C)C)cc1O [Carvacrol] | 937.62 | 42.05 | 75.77 |
| COc1cc(C=O)ccc1OC(C)=O [Acetylvanillin] | 979.34 | 39.48 | 71.13 |
| Bacitracin Zinc | 919.94 | 43.15 | 77.74 |
| CC(C)=CCC[C@](C)(O[C@@H]1O[C@H](CO)[C@@H](O)[C@H](O)[C@H]1O)[C@H]1CC[C@]2(C)[C@@H]1[C@H](O)C[C@@H]1[C@@]3(C)CC[C@H](O)C(C)(C)[C@@H]3[C@@H](O[C@@H]3O[C@H](CO)[C@@H](O)[C@H](O)[C@H]3O)C[C@]12C [Ginsenoside Rg1] | 947.81 | 41.42 | 74.64 |
| C=CC[C@@H]1/C=C(\C)C[C@H](C)C[C@H](OC)[C@H]2O[C@@](O)(C(=O)C(=O)N3CCCC[C@H]3C(=O)O[C@H](/C(C)=C/[C@@H]3CC[C@@H](O)[C@H](OC)C3)[C@H](C)[C@@H](O)CC1=O)[C@H](C)C[C@@H]2OC [Tacrolimus (FK506)] | 512.17 | 68.35 | 123.15 |
| C[C@H]1O[C@@H](O[C@H]2CC[C@@]3(C)[C@@H](CC[C@]4(C)[C@@H]3C=C[C@]35OC[C@@]6(CCC(C)(C)C[C@H]63)[C@@H](O)C[C@]54C)[C@]2(C)CO)[C@H](O)[C@@H](O[C@@H]2O[C@H](CO)[C@@H](O)[C@H](O)[C@H]2O)[C@H]1O [Saikosaponin A] | 561.50 | 65.30 | 117.65 |
| O=c1cc[nH]c(=O)[nH]1 [Uracil] | 927.30 | 42.69 | 76.92 |
| C[N+](C)(C)CC(O)CC(=O)O.[Cl-] (racemic) [DL-Carnitine HCl] | 902.01 | 44.26 | 79.74 |
| CC(C)(C)NCC(O)c1cc(Cl)c(N)c(Cl)c1 (stereo not shown) [Clenbuterol (hydrochloride)] | 994.53 | 38.54 | 69.44 |
| Cc1cnc(C(=O)O)c[n+]1[O-] [Acipimox] | 922.85 | 42.97 | 77.42 |
| C[C@@H]1O[C@@H](O[C@H]2C[C@@H](O)[C@]3(CO)[C@H]4[C@H](O)C[C@]5(C)[C@@H](C6=CC(=O)OC6)CC[C@]5(O)[C@@H]4CC[C@]3(O)C2)[C@H](O)[C@H](O)[C@H]1O [Ouabain] | 788.34 | 51.28 | 92.39 |
| CO[C@H]1C(=O)[C@]2(C)[C@@H](OC)C[C@H]3OC[C@@]3(OC(C)=O)[C@H]2[C@H](OC(=O)c2ccccc2)[C@]2(O)C[C@H](OC(=O)[C@H](O)[C@@H](NC(=O)OC(C)(C)C)c3ccccc3)C(C)=C1C2(C)C [Cabazitaxel] | 929.36 | 42.56 | 76.69 |
| CC1(C)CC[C@]2(C(=O)O[C@@H]3O[C@H](CO[C@@H]4O[C@H](CO)[C@@H](O)[C@H](O)[C@H]4O)[C@@H](O)[C@H](O)[C@H]3O)CC[C@]3(C)C(=CC[C@@H]4[C@@]5(C)CC[C@H](O[C@@H]6OC[C@H](O)[C@H](O)[C@H]6O)[C@@](C)(CO)[C@@H]5CC[C@]43C)[C@@H]2C1 [Asperosaponin VI] | 955.83 | 40.93 | 73.74 |
| O=C1C=CC(=O)C=C1 [1,4-Benzoquinone] | 422.02 | 73.92 | 133.18 |
| COc1ccc(C=O)cc1OC [Veratraldehyde] | 887.33 | 45.16 | 81.37 |
| CCCCC(=O)O[C@H]1CC[C@H]2[C@@H]3CCc4cc(O)ccc4[C@H]3CC[C@]12C [Estradiol valerate] | 924.65 | 42.86 | 77.22 |
| C=CCNC1=C2C[C@@H](C)C[C@H](OC)[C@H](O)[C@@H](C)/C=C(\C)[C@H](OC(N)=O)[C@@H](OC)/C=C\C=C(/C)C(=O)NC(=CC1=O)C2=O [17-AAG (KOS953)] | 299.07 | 81.52 | 146.87 |
| CC(C)c1cc2c(c(O)c1O)[C@@]1(C(=O)O)CCCC(C)(C)[C@@H]1CC2 [Carnosic acid] | 661.96 | 59.09 | 106.47 |

| Molecule | Mean Luminescence | % Activity over baseline [%] | % Activity relative to Rapamycin [%] |
| --- | --- | --- | --- |
| CC(=O)O[C@H]1C(=O)[C@@]2(C)[C@H]([C@H](OC(=O)c3ccccc3)[C@]3(O)C[C@H](OC(=O)[C@H](O)[C@@H](NC(=O)c4ccccc4)c4ccccc4)C(C)=C1C3(C)C)[C@]1(OC(C)=O)CO[C@@H]1C[C@@H]2O [Compound 7-Epitaxol] | 968.61 | 40.14 | 72.32 |
| CC1=C(/C=C/C(C)=C/C=C/C(C)=C/C(=O)O)C(C)(C)CCC1 [Tretinoin (Aberela)] | 773.39 | 52.20 | 94.06 |
| CC(C)(CO)C(O)C(=O)NCCCO (racemic) [DL-Panthenol] | 991.50 | 38.72 | 69.77 |
| CC(=O)OCC1=C(C(=O)O)N2C(=O)[C@@H](NC(=O)Cc3cccs3)[C@H]2SC1 [Cephalothin] | 727.65 | 55.03 | 99.15 |
| Nc1ncnc2c1ncn2[C@@H]1O[C@H](COP(=O)(O)O)[C@@H](O)[C@H]1O [Adenosine 5-monophosphate] | 890.00 | 45.00 | 81.07 |
| CO[C@H]1C[C@H](O[C@H]2CC[C@@]3(C)[C@H](CC[C@@H]4[C@@H]3CC[C@]3(C)[C@@H](C5=CC(=O)OC5)[C@@H](OC(C)=O)C[C@]43O)C2)O[C@@H](C)[C@@H]1O [Oleandrin] | 766.18 | 52.65 | 94.86 |
| N[C@@H](Cc1c[nH]c2ccc(O)cc12)C(=O)O [Compound 5-HTP] | 902.36 | 44.23 | 79.70 |
| CO[C@H]1O[C@@H]2O[C@@]3(C)CC[C@H]4[C@H](C)CC[C@@H]([C@H]1C)[C@@]24OO3 [Artemether (SM-224)] | 596.56 | 63.13 | 113.75 |
| Bleomycin Sulfate | 615.38 | 61.97 | 111.65 |
| CC(=O)O[C@H](CC(=O)O)C[N+](C)(C)C.[Cl-] [L-Acetylcarnitine (hydrochloride)] | 581.20 | 64.08 | 115.46 |
| CC1=C2C[C@H]3[C@@H](CC=C4C[C@@H](O)CC[C@@]43C)[C@@H]2CC[C@]12O[C@@H]1C[C@H](C)CN[C@H]1[C@H]2C [Cyclopamine] | 471.92 |  |  |
| CCOC(=O)NCCCC(=O)NCCc1ccccc1 [Santacruzamate A (CAY10683)] | 972.04 | 39.93 | 71.94 |
| O=C(O)c1cccc(O)c1 [m-Hydroxybenzoic acid] | 745.89 | 53.90 | 97.12 |
| O=C1CC[C@H](C(=O)O)N1 [D-Pyroglutamic acid] | 938.93 | 41.97 | 75.63 |
| CC[C@@H]1/C=C(\C)C[C@H](C)C[C@H](OC)[C@H]2O[C@@](O)(C(=O)C(=O)N3CCCC[C@H]3C(=O)O[C@H](/C(C)=C/[C@@H]3CC[C@@H](O)[C@H](OC)C3)[C@H](C)[C@@H](O)CC1=O)[C@H](C)C[C@@H]2OC [Ascomycin(FK 520)] | 640.39 | 60.42 | 108.87 |
| CC(C)(CO)C(O)C(=O)NCCC(=O)[O-].CC(C)(CO)C(O)C(=O)NCCC(=O)[O-].[Ca+2] [Calcium D-Panthotenate] | 981.67 | 39.33 | 70.87 |
| CN1[C@@H]2C[C@@H](OC(=O)[C@H](CO)c3ccccc3)C[C@H]1[C@@H]1O[C@@H]12 [Scopolamine hydrobromide] | 937.62 | 42.05 | 75.77 |
| C[C@]12CCC(=O)C=C1CC[C@@H]1[C@@H]2[C@@H](O)C[C@@]2(C)[C@H]1CC[C@]2(O)C(=O)CO [Hydrocortisone] | 801.04 | 50.50 | 90.98 |
| CNC(=O)c1cc(Oc2ccc(NC(=O)Nc3ccc(Cl)c(C(F)(F)F)c3)cc2)ccn1 [Sorafenib] | 932.25 | 42.39 | 76.37 |
| COc1cc(C)c(/C=C/C(C)=C/C=C/C(C)=C/C(=O)O)c(C)c1C [Acitretin] | 883.02 | 45.43 | 81.85 |
